Data taken from the CheMixHub viscosity set.

Test: xn = mol fraction of the nth substance listed

CCCCCCCCCCO + c1ccccc1
viscosity [mPa·s], 100 kPa
Settings	x2 = 0.0822	x2 = 0.1563	x2 = 0.2472	x2 = 0.3611	x2 = 0.4531	x2 = 0.5602	x2 = 0.6533	x2 = 0.7528	x2 = 0.8574	x2 = 0.9496
293.15 K	12.2	10.48	8.738	6.833	5.51	4.154	3.087	2.082	1.318	0.839
303.15 K	8.134	6.872	5.555	4.197	3.332	2.5	1.888	1.361	0.925	0.656
313.15 K	5.704	4.746	3.723	2.709	2.089	1.514	1.132	0.877	0.673	0.546
323.15 K	4.088	3.345	2.548	1.757	1.34	1.012	0.796	0.644	0.536	0.461

CCOC(=O)OCC + CS(C)=O
308.15 K, 101 kPa
Settings	viscosity [mPa·s]
x2 = 0.0902	0.7
x2 = 0.1358	0.719
x2 = 0.2655	0.789
x2 = 0.3678	0.836
x2 = 0.468	0.928
x2 = 0.5579	1.006
x2 = 0.6013	1.047
x2 = 0.6456	1.093
x2 = 0.7167	1.172
x2 = 0.7783	1.249
x2 = 0.8439	1.344
x2 = 0.9239	1.487

CCOC(=O)OCC + CCCCCCCO
101 kPa
Settings	viscosity [mPa·s]
293.15 K, x1 = 0.0488	5.846
293.15 K, x1 = 0.1045	4.795
293.15 K, x1 = 0.1829	3.725
293.15 K, x1 = 0.3015	2.669
293.15 K, x1 = 0.4047	2.08
293.15 K, x1 = 0.4807	1.748
293.15 K, x1 = 0.5714	1.453
293.15 K, x1 = 0.7024	1.153
293.15 K, x1 = 0.7985	0.995
293.15 K, x1 = 0.9023	0.873
293.15 K, x1 = 0.9522	0.831
303.15 K, x1 = 0.06097	4.061
303.15 K, x1 = 0.1159	3.411
303.15 K, x1 = 0.1861	2.773
303.15 K, x1 = 0.296	2.086
303.15 K, x1 = 0.4	1.655
303.15 K, x1 = 0.4747	1.417
303.15 K, x1 = 0.5946	1.149
303.15 K, x1 = 0.7056	0.955
303.15 K, x1 = 0.7928	0.851
303.15 K, x1 = 0.9047	0.755
303.15 K, x1 = 0.9521	0.727
313.15 K, x1 = 0.05658	3.024
313.15 K, x1 = 0.1024	2.586
313.15 K, x1 = 0.1931	2.03
313.15 K, x1 = 0.3063	1.576
313.15 K, x1 = 0.3932	1.348
313.15 K, x1 = 0.4994	1.121
313.15 K, x1 = 0.5837	0.974
313.15 K, x1 = 0.7095	0.811
313.15 K, x1 = 0.7894	0.736
313.15 K, x1 = 0.8956	0.661
313.15 K, x1 = 0.9569	0.634

NC(N)=O + CC(C)O
viscosity [mPa·s], 101 kPa
Settings	293.15 K	298.15 K	303.15 K	308.15 K	313.15 K	318.15 K	323.15 K
x1 = 0.02132	2.552	2.196	1.899	1.65	1.44	1.262	1.111
x1 = 0.02695	2.58	2.22	1.92	1.669	1.457	1.277	1.124
x1 = 0.03401	2.6	2.243	1.944	1.693	1.481	1.301	1.147

CCCCCCCCCCO + Cc1ccc(C)cc1
viscosity [mPa·s], 101 kPa
Settings	298.15 K	308.15 K
x2 = 0.0806	9.447	6.565
x2 = 0.1731	7.145	5.045
x2 = 0.2506	5.591	4.011
x2 = 0.3197	4.463	3.242
x2 = 0.3693	3.779	2.781
x2 = 0.4336	3.053	2.275
x2 = 0.4929	2.512	1.9
x2 = 0.5771	1.908	1.481
x2 = 0.662	1.456	1.153
x2 = 0.7265	1.2	0.963
x2 = 0.7763	1.04	0.845
x2 = 0.8293	0.9	0.744
x2 = 0.8891	0.776	0.648
x2 = 0.9369	0.693	0.59

OCCOCCOCCO + CCC(C)O
viscosity [mPa·s], 100 kPa
Settings	x1 = 0.0808	x1 = 0.1599	x1 = 0.2399	x1 = 0.35	x1 = 0.44	x1 = 0.5558	x1 = 0.6502	x1 = 0.7399	x1 = 0.8502	x1 = 0.94
293.15 K	5.57	7.33	9.21	12.23	15.18	19.7	24.16	29.07	36.18	43.08
298.15 K	4.23	5.59	7	9.31	11.53	14.96	18.37	22.16	27.73	33.06
303.15 K	3.68	4.84	6.08	7.92	9.7	12.38	15.03	17.95	22.19	26.32
308.15 K	3.18	4.17	5.17	6.64	7.98	10.05	12.09	14.34	17.76	21
313.15 K	2.58	3.33	4.17	5.42	6.58	8.32	10.01	11.91	14.65	17.26
318.15 K	2.26	3.02	3.79	4.92	5.92	7.37	8.75	10.23	12.32	14.31
323.15 K	1.94	2.54	3.17	4.12	4.97	6.23	7.4	8.65	10.4	11.99

OCCOCCOCCO + CC(C)O
viscosity [mPa·s], 100 kPa
Settings	x1 = 0.081	x1 = 0.1598	x1 = 0.2401	x1 = 0.3501	x1 = 0.44	x1 = 0.5601	x1 = 0.6501	x1 = 0.74	x1 = 0.8498	x1 = 0.9398
293.15 K	4.61	6.73	9.06	12.51	15.58	20.36	24.67	29.58	36.45	43.07
298.15 K	3.54	5.11	6.84	9.44	11.82	15.58	18.9	22.75	28.15	33.34
303.15 K	3.21	4.58	5.98	8.15	10.07	13.01	15.62	18.54	22.62	26.49
308.15 K	2.65	3.73	4.95	6.7	8.26	10.68	12.73	15.05	18.28	21.38
313.15 K	2.22	3.12	4.05	5.45	6.71	8.67	10.32	12.22	14.86	17.32
318.15 K	1.97	2.79	3.63	4.83	5.88	7.5	8.82	10.32	12.42	14.36
323.15 K	1.8	2.54	3.32	4.44	5.39	6.74	7.86	9.07	10.68	12.14

Cc1ccccc1C + COCCO
viscosity [mPa·s], 101 kPa
Settings	298.15 K	308.15 K
x2 = 0.0517	0.769	0.666
x2 = 0.1491	0.795	0.686
x2 = 0.2491	0.83	0.714
x2 = 0.3509	0.877	0.749
x2 = 0.4485	0.934	0.79
x2 = 0.4919	0.963	0.811
x2 = 0.5537	1.009	0.845
x2 = 0.6432	1.088	0.901
x2 = 0.7525	1.206	0.983
x2 = 0.8492	1.334	1.07
x2 = 0.9547	1.506	1.185

Cc1ccccc1C + CCCCCCCCCCO
viscosity [mPa·s], 101 kPa
Settings	298.15 K	308.15 K
x1 = 0.0766	9.611	6.581
x1 = 0.1331	8.188	5.606
x1 = 0.1823	7.108	4.864
x1 = 0.2509	5.802	3.987
x1 = 0.3173	4.749	3.288
x1 = 0.3896	3.813	2.671
x1 = 0.4556	3.107	2.214
x1 = 0.5261	2.509	1.815
x1 = 0.6054	1.983	1.459
x1 = 0.6597	1.695	1.264
x1 = 0.7364	1.374	1.041
x1 = 0.8029	1.156	0.895
x1 = 0.873	0.977	0.781
x1 = 0.9447	0.84	0.698

CCCCCCCCCCO + CCCCCC
viscosity [mPa·s]
Settings	298.15 K	313.15 K
101 kPa, x1 = 0.1542	0.53	0.436
101 kPa, x1 = 0.2062	0.652	0.522
101 kPa, x1 = 0.2913	0.903	0.696
101 kPa, x1 = 0.4059	1.404	1.025
101 kPa, x1 = 0.5224	2.204	1.524
101 kPa, x1 = 0.604	3.005	2.014
101 kPa, x1 = 0.7085	4.435	2.85
101 kPa, x1 = 0.8065	6.289	3.857
101 kPa, x1 = 0.8728	7.898	4.705
101.3 kPa, x1 = 0.0533	0.372	–
101.3 kPa, x1 = 0.1124	0.458	–
101.3 kPa, x1 = 0.1601	0.545	–
101.3 kPa, x1 = 0.208	0.651	–
101.3 kPa, x1 = 0.2525	0.733	–
101.3 kPa, x1 = 0.3012	0.929	–
101.3 kPa, x1 = 0.4024	1.377	–
101.3 kPa, x1 = 0.5028	2.028	–
101.3 kPa, x1 = 0.6001	2.934	–
101.3 kPa, x1 = 0.7019	4.26	–
101.3 kPa, x1 = 0.7954	5.923	–
101.3 kPa, x1 = 0.8487	7.108	–
101.3 kPa, x1 = 0.9002	8.453	–
101.3 kPa, x1 = 0.9622	10.36	–
